Assay results reported in patent publication US20060263802A1 (priority 2003, published 2006).

What was measured:
Format in all cases: binding
[1] = test system: human monoclonal antibody CRJA
[2] = test system: human monoclonal antibody CR57
[3] = test system: human monoclonal antibody CRJB
[4] = test system: human monoclonal antibody CRJA; remark: listed apart in the source
[5] = test system: human monoclonal antibody CR57; remark: listed apart in the source
[6] = test system: human monoclonal antibody CRJB; remark: listed apart in the source

Sequence | Binding of CRJA to linear peptide (PEPSCAN-ELISA signal) [1] | Binding of CR57 (10 μg/ml) to looped/cyclic peptide (PEPSCAN-ELISA signal) [2] | Binding of CRJB to linear peptide (PEPSCAN-ELISA signal) [3] | Binding of CRJA (10 μg/ml) to looped/cyclic peptide (PEPSCAN-ELISA signal) [4] | Binding of CR57 to linear peptide (PEPSCAN-ELISA signal) [5] | Binding of CRJB (10 μg/ml) to looped/cyclic peptide (PEPSCAN-ELISA signal) [6] | Binding of CR57 (10 μg/ml) to looped/cyclic peptide (PEPSCAN-ELISA) [2] | Binding of CRJA (10 μg/ml) to looped/cyclic peptide (PEPSCAN-ELISA) [4] | Binding of CRJB (10 μg/ml) to looped/cyclic peptide (PEPSCAN-ELISA) [6]
SCDIFTNSRGKRASK | 89 | 1 | 111 | 57 | 44 | 79 | – | – | –
FPSGKCSGVAVSSTY | 93 | 90 | 134 | 80 | 64 | 74 | – | – | –
KESLVIISPSVADLD | 123 | 86 | 117 | 83 | 86 | 85 | – | – | –
DACRAAYNWKMAGDP | 83 | 133 | 113 | 110 | 84 | 77 | – | – | –
CSTNHDYTIWMPENP | 58 | 47 | 106 | 41 | 52 | 72 | – | – | –
QQHMELLESSVIPLV | 100 | – | 134 | – | 103 | – | 141 | 94 | 92
TTTFKRKHFRPTPDA | 76 | 90 | 108 | 93 | 80 | 99 | – | – | –
VSSTYCSTNHDYTIW | 80 | 89 | 107 | 88 | 78 | 61 | – | – | –
ELVRKREECLDALES | 97 | – | 113 | – | 82 | – | 93 | 98 | 71
TTFKRKHFRPTPDAC | 111 | 86 | 99 | 89 | 74 | 78 | – | – | –
VGGRCHPHVNGVFFN | 92 | – | 136 | – | 120 | – | 143 | 106 | 64
TCGFVDERGLYKSLK | 104 | – | 120 | – | 47 | – | 84 | 100 | 79
